The source of these data is patent US11786476B2, “Oral dosage form” (Universiteit Gent, priority 2016, dated 2023).

Counter-ions that a name gives are not always drawn.

A short description of data set [1]: Powder characteristics of raw materials (particle size and geometry). The format is physicochemical. Conditions: raw material powder; for D90: 90% of particles smaller than this diameter.
The conditions of data set [2]: literature values; cited from earlier work.

For the molecule `CC(=O)Nc1ccc(O)cc1` [Acetaminophen, acetaminophen], in data set [1], the D10 came to 1.7 μm, the D50 is recorded as 6.4 μm, the Sphericity is listed as 0.84 and the D90 is reported as 20.1 μm.
As to `CN(C)C(=N)N=C(N)N` [Metformin · HCl, metformin hydrochloride], in data set [1], the D10 amounted to 8.4 μm, the D50 was determined as 51.6 μm, the Sphericity came to 0.87 and the D90 turned out to be 150.2 μm.
On to `COc1cccc(C2(O)CCCCC2CN(C)C)c1` (stereo not drawn) [tramadol], for which, in data set [2], the aqueous solubility was 30 to 100 mg/mL.
